Results: patent US20210255193A1, “LYSINE REACTIVE PROBES AND USES THEREOF” (The Scripps Research Institute, priority 2017, published 2021)

Key:
Test in all cases: competitive isoTOP-ABPP
Type in all cases: binding
DCTN2 Dynactin subunit 2 = molecular target: T1, DCTN2 Dynactin subunit 2 (Homo sapiens, UniProt Q13561); conditions: 50 uM, in vitro; for isoTOP-ABPP reactivity ratio at lysine Q13561_K175: 231 sol; for isoTOP-ABPP ratio (R) at liganded lysine Q13561_K175: sol, 231
T1 construct: isoTOP-ABPP experiments performed in cell lysates (in vitro); endogenous in cells; host or cells: soluble proteome of human cancer cell lines (MDA-MB-231, Ramos, Jurkat)
Summary of the method: (§1)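 Probe: STP-alkyne, 0.1 mM, 1 h RT, after fragment pretreatment of lysate (esters 50 μM; guanidinylators 100 μM). Tags: light = compound, heavy = DMSO, via CuAAC. Replicates averaged if SD <60% of mean; otherwise lowest ratio used when any R <4.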

[1] = molecular target: T2, GLUD1 Glutamate dehydrogenase 1, mitochondrial (Homo sapiens, UniProt P00367); conditions: 50 uM, in vitro; for isoTOP-ABPP reactivity ratio at lysine P00367_K480: 231 sol; for isoTOP-ABPP ratio (R) at liganded lysine P00367_K480: sol, 231
T2 construct: isoTOP-ABPP experiments performed in cell lysates (in vitro); endogenous in cells; host or cells: MDA-MB-231 soluble lysate
Summary of the method: as §1

[2] = molecular target: T3, NPEPPS Puromycin-sensitive aminopeptidase (Homo sapiens, UniProt P55786); conditions: 50 uM, in vitro; for isoTOP-ABPP reactivity ratio at lysine P55786_K712: 231 sol; for isoTOP-ABPP ratio (R) at liganded lysine P55786_K712: sol, 231
T3 construct: isoTOP-ABPP experiments performed in cell lysates (in vitro); endogenous in cells; host or cells: soluble proteome of human cancer cell lines (MDA-MB-231, Ramos, Jurkat)
Summary of the method: as §1

[3] = molecular target: T4, PNPO Pyridoxine-5-phosphate oxidase (Homo sapiens, UniProt Q9NVS9); conditions: 50 uM, in vitro; for isoTOP-ABPP reactivity ratio at lysine Q9NVS9_K100: 231 sol; for isoTOP-ABPP ratio (R) at liganded lysine Q9NVS9_K100: sol, 231
T4 construct: endogenous in cells; host or cells: MDA-MB-231 (soluble fraction of lysate)
T4 sequence (Q9NVS9 1-261): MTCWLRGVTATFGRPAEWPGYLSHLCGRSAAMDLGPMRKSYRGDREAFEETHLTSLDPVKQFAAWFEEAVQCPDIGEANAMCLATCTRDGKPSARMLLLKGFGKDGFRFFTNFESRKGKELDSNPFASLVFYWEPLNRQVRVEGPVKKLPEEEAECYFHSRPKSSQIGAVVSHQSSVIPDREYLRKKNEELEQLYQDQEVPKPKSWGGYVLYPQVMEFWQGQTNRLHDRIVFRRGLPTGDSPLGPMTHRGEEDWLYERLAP
Summary of the method: as §1

STRN3 Striatin-3 = molecular target: T5, STRN3 Striatin-3 (Homo sapiens, UniProt Q13033); conditions: 50 uM, in vitro; for isoTOP-ABPP reactivity ratio at lysine Q13033_K755: 231 sol; for isoTOP-ABPP ratio (R) at liganded lysine Q13033_K755: sol, 231
T5 construct: isoTOP-ABPP experiments performed in cell lysates (in vitro); endogenous in cells; host or cells: soluble proteome of human cancer cell lines (MDA-MB-231, Ramos, Jurkat)
T5 sequence (Q13033 1-797): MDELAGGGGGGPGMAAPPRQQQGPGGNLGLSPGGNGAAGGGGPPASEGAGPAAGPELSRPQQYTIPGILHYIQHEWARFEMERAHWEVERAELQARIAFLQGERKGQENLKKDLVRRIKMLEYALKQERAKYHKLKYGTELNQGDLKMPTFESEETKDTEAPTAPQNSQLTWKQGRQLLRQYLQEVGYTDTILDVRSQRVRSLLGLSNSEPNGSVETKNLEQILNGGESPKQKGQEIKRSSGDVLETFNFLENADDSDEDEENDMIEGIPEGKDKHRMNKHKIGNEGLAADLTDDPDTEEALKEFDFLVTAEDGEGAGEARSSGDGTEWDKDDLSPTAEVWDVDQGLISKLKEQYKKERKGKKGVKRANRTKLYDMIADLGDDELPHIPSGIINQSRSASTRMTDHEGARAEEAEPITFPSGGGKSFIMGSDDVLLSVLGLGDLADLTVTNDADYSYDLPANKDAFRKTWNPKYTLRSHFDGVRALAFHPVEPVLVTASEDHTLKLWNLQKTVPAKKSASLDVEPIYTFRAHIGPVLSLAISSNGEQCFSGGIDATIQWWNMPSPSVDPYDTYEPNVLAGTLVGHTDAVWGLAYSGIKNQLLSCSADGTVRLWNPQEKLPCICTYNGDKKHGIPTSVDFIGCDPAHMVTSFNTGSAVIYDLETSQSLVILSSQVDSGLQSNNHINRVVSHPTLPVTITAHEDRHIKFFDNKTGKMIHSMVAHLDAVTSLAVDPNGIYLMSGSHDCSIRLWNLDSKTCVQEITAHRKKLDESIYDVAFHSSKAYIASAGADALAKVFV
Summary of the method: as §1

T2 sequence (P00367 54-558): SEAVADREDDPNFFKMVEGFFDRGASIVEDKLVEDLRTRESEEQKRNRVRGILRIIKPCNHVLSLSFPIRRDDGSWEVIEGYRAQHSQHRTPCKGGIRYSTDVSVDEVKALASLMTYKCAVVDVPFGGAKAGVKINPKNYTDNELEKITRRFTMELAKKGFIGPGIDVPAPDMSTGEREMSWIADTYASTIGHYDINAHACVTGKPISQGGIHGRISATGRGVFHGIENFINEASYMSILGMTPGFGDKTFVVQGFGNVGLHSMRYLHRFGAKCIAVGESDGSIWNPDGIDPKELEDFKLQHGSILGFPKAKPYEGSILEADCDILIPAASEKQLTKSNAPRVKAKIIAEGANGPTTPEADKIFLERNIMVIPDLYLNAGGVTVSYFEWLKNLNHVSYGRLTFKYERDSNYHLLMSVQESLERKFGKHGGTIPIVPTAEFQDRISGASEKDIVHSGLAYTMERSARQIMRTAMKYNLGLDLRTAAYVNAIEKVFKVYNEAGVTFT
T1 sequence (Q13561 whole entry): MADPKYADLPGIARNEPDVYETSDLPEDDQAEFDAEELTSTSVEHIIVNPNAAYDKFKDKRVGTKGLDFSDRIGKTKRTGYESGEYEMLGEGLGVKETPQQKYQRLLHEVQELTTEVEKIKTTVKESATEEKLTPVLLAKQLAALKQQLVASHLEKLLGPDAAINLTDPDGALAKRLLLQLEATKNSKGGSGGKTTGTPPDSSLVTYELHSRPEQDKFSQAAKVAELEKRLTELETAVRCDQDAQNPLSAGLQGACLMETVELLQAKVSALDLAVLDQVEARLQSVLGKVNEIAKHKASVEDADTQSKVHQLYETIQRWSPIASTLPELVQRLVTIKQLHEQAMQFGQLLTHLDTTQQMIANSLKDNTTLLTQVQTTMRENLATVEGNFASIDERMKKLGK
T3 sequence (P55786 whole entry): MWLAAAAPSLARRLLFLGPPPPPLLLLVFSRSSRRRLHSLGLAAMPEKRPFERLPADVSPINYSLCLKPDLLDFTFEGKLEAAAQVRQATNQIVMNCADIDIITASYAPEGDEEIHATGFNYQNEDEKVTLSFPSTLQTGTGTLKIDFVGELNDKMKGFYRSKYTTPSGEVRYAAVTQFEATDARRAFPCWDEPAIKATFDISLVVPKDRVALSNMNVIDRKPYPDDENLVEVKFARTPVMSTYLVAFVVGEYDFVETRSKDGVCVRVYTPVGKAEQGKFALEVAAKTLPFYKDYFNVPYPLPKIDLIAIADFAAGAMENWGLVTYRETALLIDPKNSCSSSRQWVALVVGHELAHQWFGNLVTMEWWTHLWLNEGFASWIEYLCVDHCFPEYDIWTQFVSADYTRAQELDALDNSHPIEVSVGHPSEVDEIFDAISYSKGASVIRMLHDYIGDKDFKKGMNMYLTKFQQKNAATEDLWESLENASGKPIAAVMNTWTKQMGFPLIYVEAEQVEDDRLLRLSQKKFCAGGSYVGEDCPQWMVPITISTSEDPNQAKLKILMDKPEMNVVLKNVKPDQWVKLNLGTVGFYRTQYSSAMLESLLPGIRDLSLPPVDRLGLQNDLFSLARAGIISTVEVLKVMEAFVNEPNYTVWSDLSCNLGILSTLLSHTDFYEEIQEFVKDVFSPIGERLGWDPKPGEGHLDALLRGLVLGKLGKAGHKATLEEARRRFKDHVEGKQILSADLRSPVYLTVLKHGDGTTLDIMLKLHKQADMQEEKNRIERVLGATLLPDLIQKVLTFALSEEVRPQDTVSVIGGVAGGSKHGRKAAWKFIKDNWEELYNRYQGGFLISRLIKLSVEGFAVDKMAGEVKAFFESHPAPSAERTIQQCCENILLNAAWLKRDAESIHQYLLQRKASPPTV

SMILES | isoTOP-ABPP reactivity ratio at lysine Q13561_K175 (DCTN2 Dynactin subunit 2) | isoTOP-ABPP reactivity ratio at lysine P00367_K480 [1] | isoTOP-ABPP reactivity ratio at lysine P55786_K712 [2] | isoTOP-ABPP reactivity ratio at lysine Q9NVS9_K100 [3] | isoTOP-ABPP reactivity ratio at lysine Q13033_K755 (STRN3 Striatin-3) | isoTOP-ABPP ratio (R) at liganded lysine Q13561_K175 (DCTN2 Dynactin subunit 2) | isoTOP-ABPP ratio (R) at liganded lysine P00367_K480 [1] | isoTOP-ABPP ratio (R) at liganded lysine P55786_K712 [2] | isoTOP-ABPP ratio (R) at liganded lysine Q9NVS9_K100 [3] | isoTOP-ABPP ratio (R) at liganded lysine Q13033_K755 (STRN3 Striatin-3)
Cn1cc(CC(=O)Oc2ccc([N+](=O)[O-])cc2[N+](=O)[O-])c2ccccc21 [fragment 32, 2,4-Dinitrophenyl 2-(1-methyl-1H-indol-3-yl)acetate] | 4.4 | 4.4 | 1.4 | 3.6 | 2.7 |  |  |  |  | 
COc1cc(CCC(=O)Oc2ccc([N+](=O)[O-])cc2[N+](=O)[O-])cc(OC)c1OC [fragment 33, 2,4-Dinitrophenyl 3-(3,4,5-trimethoxyphenyl)propanoate] | 1.6 | 6.2 | 1.2 | 1.2 | 1.8 |  |  |  |  | 
O=C(Oc1ccc([N+](=O)[O-])cc1[N+](=O)[O-])C1CCN(C(=O)OCc2ccccc2)CC1 [fragment 34, 1-Benzyl 4-(2,4-dinitrophenyl) piperidine-1,4-dicarboxylate] |  |  |  |  |  | 1.7 | 1.3 | 11.0 | 0.9 | 3.7
O=C(Oc1ccc([N+](=O)[O-])cc1[N+](=O)[O-])c1ccc2ccccc2n1 [fragment 35, 2,4-Dinitrophenyl quinoline-2-carboxylate] |  |  |  |  |  | 0.8 | 1.8 | 1.3 | 0.9 | 1.0
O=C(Oc1ccc([N+](=O)[O-])cc1[N+](=O)[O-])c1ccc(-c2ccccc2)cc1 [fragment 37, 2,4-Dinitrophenyl [1,1′-biphenyl]-4-carboxylate] |  |  |  |  |  | 0.9 | 1.1 | 0.9 | 0.9 | 0.8
O=C(Oc1ccc([N+](=O)[O-])cc1[N+](=O)[O-])c1ccc(Oc2ccccc2)cc1 [fragment 39, 2,4-Dinitrophenyl 4-phenoxybenzoate] |  |  |  |  |  | 0.8 | 1.0 | 0.9 | 0.9 | 0.9
O=C(Oc1ccc([N+](=O)[O-])cc1[N+](=O)[O-])c1ccccc1Nc1cccc(C(F)(F)F)c1 [fragment 40, 2,4-Dinitrophenyl 2-((3-(trifluoromethyl)phenyl)amino)benzoate] |  |  |  |  |  | 0.9 | 1.2 | 1.0 | 0.9 | 1.2
CC(C)(C)OC(=O)NCCCC(=O)Oc1ccc([N+](=O)[O-])cc1[N+](=O)[O-] [fragment 41, 2,4-Dinitrophenyl 4-((tert-butoxycarbonyl)amino)butanoate] |  |  |  |  |  | 1.3 | 3.7 | 1.5 | 1.0 | 1.3
